According to US20260347373A1, “HETEROCYCLIC COMPOUNDS, COMPOSITIONS THEREOF, AND METHODS OF TREATMENT THEREWITH” (BeOne Medicines I GmbH, priority 2023, published 2026):
Structures can show the parent of a compound that is named as a salt. Where two headings read alike, the source gives them in different places.

Experiments:
[1] = target: WT KRAS (Homo sapiens, UniProt P01116); assay: KRAS WT Probe Displacement Assay (TR-FRET, GDP-loaded); format: binding
Source text: (§1) The synthetic routes of probe 1 and 2, which have been disclosed in PCT/CN2022/070676, are hereby incorporated herein.

[2] = target: KRAS G12D (Homo sapiens, UniProt P01116, G12D); assay: KRAS G12D Probe Displacement Assay (TR-FRET, GDP-loaded); format: binding
KRAS G12D, sequence (P01116 1-188 isoform P01116-2 G12D): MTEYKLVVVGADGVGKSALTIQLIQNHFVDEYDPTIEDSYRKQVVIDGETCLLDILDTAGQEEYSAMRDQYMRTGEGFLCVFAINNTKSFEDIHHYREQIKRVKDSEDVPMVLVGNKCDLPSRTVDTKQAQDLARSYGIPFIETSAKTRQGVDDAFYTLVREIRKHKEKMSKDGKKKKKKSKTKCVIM
Source text: as §1

[3] = KRAS WT, read-out: KRAS^WT Probe Displacement Assay IC50
[4] = KRAS G12D, read-out: KRAS^G12D Probe Displacement Assay IC50
[5] = KRAS^WT Probe Displacement Assay IC50, KRAS WT
[6] = KRAS^G12D Probe Displacement Assay IC50, KRAS G12D

WT KRAS, sequence (P01116 1-188 isoform P01116-2): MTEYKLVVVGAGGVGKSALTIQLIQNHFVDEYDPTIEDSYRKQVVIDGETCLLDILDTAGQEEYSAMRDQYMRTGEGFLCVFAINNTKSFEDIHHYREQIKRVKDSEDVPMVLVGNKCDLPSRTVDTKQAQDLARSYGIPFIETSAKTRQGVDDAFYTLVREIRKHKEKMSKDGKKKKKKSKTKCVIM

For C=C1CN2C[C@H](F)C[C@]2(COc2nc3c4c(nc(-c5cc(N)cc(Cl)c5C(F)(F)F)c(F)c4n2)OCC[C@@H]2[C@@H]4CC[C@H](CN32)N4)C1 [Example 211, 3-chloro-5-((6aR,7aS,10R)-1-fluoro-13-(((2R,7aS)-2-fluoro-6-methylenetetrahydro-1H-pyrrolizin-7a(5H)-yl)methoxy)-5,6,6a,7,8,9,10,11-octahydro-4-oxa-3,11a,12,14,15-pentaaza-7,10-methanocyclohepta[4,5]cycloocta[1,2,3-de]naphthalen-2-yl)-4-(trifluoromethyl)aniline], the IC50 [1, 3] was 3 to 1000 nM and the IC50 [2, 4] was less than 0.3 nM.
With Cc1cc(N)cc(-c2nc3c4c(nc(OCC5(CN6CCCC6CO)CC5)nc4c2F)N2C[C@H]4CC[C@H](N4)[C@H]2CCO3)c1C(F)(F)F (single isomer, unassigned) [Example 124] the IC50 [1, 3] was 3 to 1000 nM and the IC50 [2, 4] was 0.3 to 3 nM.
Nc1cc(Cl)c(C(F)(F)F)c(-c2nc3c4c(nc(OCC56C[C@@H](F)CN5C[C@H](F)C6)nc4c2F)N2C[C@H]4CC[C@H](N4)[C@H]2CCO3)c1 [Example 72, 3-chloro-5-((6aR,7S,10R)-13-(((2R,6R)-2,6-difluorotetrahydro-1H-pyrrolizin-7a(5H)-yl)methoxy)-1-fluoro-5,6,6a,7,8,9,10,11-octahydro-4-oxa-3,11a,12,14,15-pentaaza-7,10-methanocyclohepta[4,5]cycloocta [1,2,3-de]naphthalen-2-yl)-4-(trifluoromethyl)aniline] gave an IC50 [1, 3] of 3 to 1000 nM and an IC50 [2, 4] of less than 0.3 nM.
Compound CN(C)CC1(COc2nc3c4c(nc(-c5cc(N)cc(Cl)c5C(F)(F)F)c(F)c4n2)OCC[C@@H]2[C@@H]4CC[C@H](CN32)N4)CC1(F)F (mixture of isomers) [Example 18, 3-chloro-5-((6aR,7S,10R)-13-((1-((dimethylamino)methyl)-2,2-difluorocyclopropyl)methoxy)-1-fluoro-5,6,6a,7,8,9,10,11-octahydro-4-oxa-3,11a,12,14,15-pentaaza-7,10-methanocyclohepta[4,5]cycloocta [1,2,3-de]naphthalen-2-yl)-4-(trifluoromethyl)aniline] has an IC50 [1, 3] of 3 to 1000 nM and an IC50 [2, 4] of less than 0.3 nM.
Cc1cc(N)cc(-c2nc3c4c(nc(O[C@@H](C)[C@@H]5CCCN5CCF)nc4c2F)N2C[C@H]4CC[C@H](N4)[C@H]2CCO3)c1C(F)(F)F [Example 250, 3-((6aR,7S,10R)-1-fluoro-13-((S)-1-((S)-1-(2-fluoroethyl)pyrrolidin-2-yl)ethoxy)-5,6,6a,7,8,9,10,11-octahydro-4-oxa-3,11a,12,14,15-pentaaza-7,10-methanocyclohepta[4,5]cycloocta[1,2,3-de]naphthalen-2-yl)-5-methyl-4-(trifluoromethyl)aniline] was tested, and the IC50 [1, 3] was 3 to 1000 nM and the IC50 [2, 4] was less than 0.3 nM.
Work on Cc1cc(N)cc(-c2nc3c4c(nc(OCC5(CN6CC(C)(O)C6)CC5)nc4c2F)N2C[C@H]4CC[C@H](N4)[C@H]2CCO3)c1C(F)(F)F [Example 81, 1-((1-((((6aR,7S, 10R)-2-(5-amino-3-methyl-2-(trifluoromethyl)phenyl)-1-fluoro-5,6,6a,7,8,9,10,11-octahydro-4-oxa-3,11a,12,14,15-pentaaza-7,10-methanocyclohepta [4,5]cycloocta [1,2,3-de]naphthalen-13-yl)oxy)methyl)cyclopropyl)methyl)-3-methylazetidin-3-ol] yielded an IC50 [1, 3] of 3 to 1000 nM and an IC50 [2, 4] of less than 0.3 nM.
Cc1cc(N)cc(-c2nc3c4c(nc(OCC5(CN(C)C)CC5F)nc4c2F)N2C[C@H]4CC[C@H](N4)[C@H]2CCO3)c1C(F)(F)F (single isomer, unassigned) [Example 136] gave an IC50 [1, 5] of 3 to 1000 nM and an IC50 [2, 6] of less than 0.3 nM.
Cc1cc(N)cc(-c2nc3c4c(nc(OCC5(CN6CC=CCC6)CC5)nc4c2F)N2C[C@H]4CC[C@H](N4)[C@H]2CCO3)c1C(F)(F)F [Example 112, 3-((6aR,7S,10R)-13-((1-((3,6-dihydropyridin-1(2H)-yl)methyl)cyclopropyl)methoxy)-1-fluoro-5,6,6a, 7,8,9,10,11-octahydro-4-oxa-3,11a,12,14,15-pentaaza-7,10-methanocyclohepta [4,5]cycloocta [1,2,3-de]naphthalen-2-yl)-5-methyl-4-(trifluoromethyl) aniline] gave an IC50 [1, 5] of 3 to 1000 nM and an IC50 [2, 6] of less than 0.3 nM.
Cc1cc(N)cc(-c2nc3c4c(nc(OCC5(CN6CCC(C#N)C6)CC5)nc4c2F)N2C[C@H]4CC[C@H](N4)[C@H]2CCO3)c1C(F)(F)F (stereo partly drawn) [Example 166, 1-((1-((((6aR,7S,10R)-2-(5-amino-3-methyl-2-(trifluoromethyl)phenyl)-1-fluoro-5,6,6a,7,8,9,10,11-octahydro-4-oxa-3,11a,12,14,15-pentaaza-7,10-methanocyclohepta[4,5]cycloocta[1,2,3-de]naphthalen-13-yl)oxy)methyl)cyclopropyl)methyl)pyrrolidine-3-carbonitrile] gave an IC50 [1, 3] of 3 to 1000 nM and an IC50 [2, 4] of less than 0.3 nM.
Cc1cc(N)cc(-c2nc3c4c(nc(OCC5(CN6C7COCC6C7)CC5)nc4c2F)N2C[C@H]4CC[C@H](N4)[C@H]2CCO3)c1C(F)(F)F [Example 104, 3-((6aR,7S,10R)-13-((1-((3-oxa-6-azabicyclo[3.1.1]heptan-6-yl)methyl)cyclopropyl)methoxy)-1-fluoro-5,6,6a,7,8,9,10,11-octahydro-4-oxa-3,11a,12,14,15-pentaaza-7,10-methanocyclohepta [4,5]cycloocta [1,2,3-de]naphthalen-2-yl)-5-methyl-4-(trifluoromethyl) aniline formate] showed an IC50 [1, 5] of 3 to 1000 nM and an IC50 [2, 6] of less than 0.3 nM.
CO[C@@H]1C[C@@H](C(C)Oc2nc3c4c(nc(-c5cc(N)cc(C)c5C(F)(F)F)c(F)c4n2)OCC[C@@H]2[C@@H]4CC[C@H](CN32)N4)N(C)C1 (single isomer, unassigned) [Example 144] was tested, and the IC50 [1, 3] was 3 to 1000 nM and the IC50 [2, 4] was less than 0.3 nM.
Compound Nc1cc(Cl)c(C(F)(F)F)c(-c2nc3c4c(nc(OC[C@@]56CCCN5CC(=C(F)F)C6)nc4c2F)N2C[C@H]4CC[C@H](N4)[C@H]2CCO3)c1 [Example 201, 3-chloro-5-((6aR,7S,10R)-13-(((S)-2-(difluoromethylene)tetrahydro-1H-pyrrolizin-7a(5H)-yl)methoxy)-1-fluoro-5,6,6a,7,8,9,10,11-octahydro-4-oxa-3,11a,12,14,15-pentaaza-7,10-methanocyclohepta[4,5]cycloocta[1,2,3-de]naphthalen-2-yl)-4-(trifluoromethyl)aniline] has an IC50 [1, 3] of 0.3 to 3 nM and an IC50 [2, 4] of less than 0.3 nM.
Cc1cc(N)cc(-c2nc3c4c(nc(OC[C@@]5(C)CCCN(C6CCOCC6)C5)nc4c2F)N2C[C@H]4CC[C@H](N4)[C@H]2CCO3)c1C(F)(F)F [Example 195, 3-((6aR,7S,10R)-1-fluoro-13-(((S)-3-methyl-1-(tetrahydro-2H-pyran-4-yl)piperidin-3-yl)methoxy)-5,6,6a,7,8,9,10,11-octahydro-4-oxa-3,11a,12,14,15-pentaaza-7,10-methanocyclohepta[4,5]cycloocta[1,2,3-de]naphthalen-2-yl)-5-methyl-4-(trifluoromethyl)aniline] was tested, and the IC50 [1, 3] was 0.3 to 3 nM and the IC50 [2, 4] was less than 0.3 nM.
Cc1cc(N)cc(-c2nc3c4c(nc(OC[C@]5(O)COC[C@H]5N(C)C)nc4c2F)N2C[C@H]4CC[C@H](N4)[C@H]2CCO3)c1C(F)(F)F [Example 131, (3R,4R)-3-((((6aR,7S,10R)-2-(5-amino-3-methyl-2-(trifluoromethyl)phenyl)-1-fluoro-5,6,6a,7,8,9,10,11-octahydro-4-oxa-3,11a,12,14,15-pentaaza-7,10-methanocyclohepta[4,5]cycloocta [1,2,3-de]naphthalen-13-yl)oxy)methyl)-4-(dimethylamino)tetrahydrofuran-3-ol] was tested, and the IC50 [1, 3] was 3 to 1000 nM and the IC50 [2, 4] was 0.3 to 3 nM.
Cc1nc(N)cc(-c2nc3c4c(nc(OCC5(CN6CCC(=C(F)F)CC6)CC5)nc4c2F)N2C[C@H]4CC[C@H](N4)[C@H]2CCO3)c1C(F)(F)F [Example 147, 4-((6aR,7S,10R)-13-((1-((4-(difluoromethylene)piperidin-1-yl)methyl)cyclopropyl)methoxy)-1-fluoro-5,6,6a,7,8,9,10,11-octahydro-4-oxa-3,11a,12,14,15-pentaaza-7,10-methano-cyclohepta[4,5]cycloocta [1,2,3-de]naphthalen-2-yl)-6-methyl-5-(trifluoromethyl)pyridin-2-amine] gave an IC50 [1, 3] of 3 to 1000 nM and an IC50 [2, 4] of less than 0.3 nM.
Work on Cc1cc(N)cc(-c2nc3c4c(nc(OCC5(CN6CCC(=C(F)F)CC6)CC5)nc4c2F)N2C[C@H]4CC[C@H](N4)[C@H]2CCO3)c1C(F)(F)F [Example 146, 3-((6aR,7S,10R)-13-((1-((4-(difluoromethylene)piperidin-1-yl)methyl)cyclopropyl)methoxy)-1-fluoro-5,6,6a,7,8,9,10,11-octahydro-4-oxa-3,11a,12,14,15-pentaaza-7,10-methano-cyclohepta[4,5]cycloocta [1,2,3-de]naphthalen-2-yl)-5-methyl-4-(trifluoromethyl) aniline] yielded an IC50 [1, 5] of 0.3 to 3 nM and an IC50 [2, 6] of less than 0.3 nM.
COC1CCN(CC2(COc3nc4c5c(nc(-c6cc(N)cc(C)c6C(F)(F)F)c(F)c5n3)OCC[C@@H]3[C@@H]5CC[C@H](CN43)N5)CC2)CC1 [Example 110, 3-((6aR,7S,10R)-1-fluoro-13-((1-((4-methoxypiperidin-1-yl)methyl)cyclopropyl)methoxy)-5,6,6a,7,8,9,10,11-octahydro-4-oxa-3,11a,12,14,15-pentaaza-7,10-methanocyclohepta[4,5]cycloocta[1,2,3-de]naphthalen-2-yl)-5-methyl-4-(trifluoromethyl)aniline] gave an IC50 [1, 3] of 3 to 1000 nM and an IC50 [2, 4] of less than 0.3 nM.
With CN(C)C[C@@]1(COc2nc3c4c(nc(-c5cc(N)cc(Cl)c5C(F)(F)F)c(F)c4n2)OCC[C@@H]2[C@@H]4CC[C@H](CN32)N4)CC1(F)F [Example 45, 3-chloro-5-((6aR,7S,10R)-13-(((R)-1-((dimethylamino)methyl)-2,2-difluorocyclopropyl)methoxy)-1-fluoro-5,6,6a,7,8,9,10,11-octahydro-4-oxa-3,11a,12,14,15-pentaaza-7,10-methanocyclohepta[4,5]cycloocta[1,2,3-de]naphthalen-2-yl)-4-(trifluoromethyl)aniline] the IC50 [1, 3] was 0.3 to 3 nM and the IC50 [2, 4] was less than 0.3 nM.
